These results are taken from the supplement of paper PMC6045584.

Compound in one experiment: CCCS(=O)(=O)Nc1ccc(F)c(C(=O)c2c[nH]c3ncc(Cl)cc23)c1F [PLX-4720]
As to the kind of experiment: surviving fraction relative to DMSO-only wells; higher = less growth inhibition. The following applies: exposure time: 5 days. The gist of the method: (§1)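 After seeding at 250–500 cells per well in 384-well plates and a 24-hour wait, log-phase tumour cell lines were exposed without interruption for five days to inhibitors at 0.5, 1, 5, 10, 50, 100, 500 and 1000 nM. CellTiter-Glo luminescence was recorded after 10 minutes at room temperature. Viability is reported as surviving fraction, the luminescence normalised to the median of DMSO-only wells.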

Compound in another experiment: O=C(O)CC[C@H]1CC[C@@](c2cc(F)ccc2F)(S(=O)(=O)c2ccc(Cl)cc2)CC1 [MK0752]
Described as above. Particulars: exposure time: 5 days. The method, boiled down:
as §1

± gives the standard deviation of the averaged measurements.

143B BONE: the surviving fraction in the experiment with PLX-4720 (0.5 nM) was 0.979 ± 0.03; with PLX-4720 (1 nM), 0.972 ± 0.023; in the experiment with PLX-4720 (5 nM), 0.99 ± 0.021; with PLX-4720 (10 nM) it was 0.968; with PLX-4720 (50 nM), 0.959 ± 0.061; with PLX-4720 (100 nM), 0.986 ± 0.0071. The surviving fraction with PLX-4720 (500 nM) was 0.855 ± 0.13; with PLX-4720 (1000 nM), 0.996 ± 0.028; in the experiment with MK0752 (0.5 nM) it was 1 ± 0.028; with MK0752 (1 nM) it was 1.04 ± 0.03; with MK0752 (5 nM) it was 1.022 ± 0.0064; in the experiment with MK0752 (10 nM), 1.05 ± 0.015. The surviving fraction came to 1.02 ± 0.044 with MK0752 (50 nM), 1.05 ± 0.026 in the experiment with MK0752 (100 nM), 1.01 ± 0.02 in the experiment with MK0752 (500 nM) and 1.06 ± 0.023 with MK0752 (1000 nM).

CASKI CERVIX: the surviving fraction is 0.795 ± 0.091 with PLX-4720 (0.5 nM); 0.809 ± 0.029 with PLX-4720 (1 nM); 0.847 ± 0.045 in the experiment with PLX-4720 (5 nM); 0.848 ± 0.033 with PLX-4720 (10 nM); 0.97 ± 0.02 in the experiment with PLX-4720 (50 nM); 1.02 ± 0.033 with PLX-4720 (100 nM). Also, the surviving fraction in the experiment with PLX-4720 (500 nM) was 0.998 ± 0.045; with PLX-4720 (1000 nM), 1.02 ± 0.058; in the experiment with MK0752 (0.5 nM), 0.896 ± 0.038; with MK0752 (1 nM), 0.973 ± 0.061; with MK0752 (5 nM), 1.01 ± 0.047; with MK0752 (10 nM), 0.952 ± 0.03. Besides, the surviving fraction with MK0752 (50 nM) was found to be 1.08 ± 0.045; in the experiment with MK0752 (100 nM), 1.09 ± 0.061; in the experiment with MK0752 (500 nM), 0.987 ± 0.054; with MK0752 (1000 nM) it was 0.943 ± 0.057.

For DU4475 BREAST, the surviving fraction with PLX-4720 (0.5 nM) was found to be 0.783 ± 0.23; with PLX-4720 (1 nM), 0.699 ± 0.14; with PLX-4720 (5 nM), 0.791 ± 0.16; with PLX-4720 (10 nM), 0.741 ± 0.1; in the experiment with PLX-4720 (50 nM) it was 0.597 ± 0.19; in the experiment with PLX-4720 (100 nM), 0.603 ± 0.17. Moreover, the surviving fraction turned out to be 0.0833 ± 0.03 in the experiment with PLX-4720 (500 nM); 0.0277 ± 0.0075 in the experiment with PLX-4720 (1000 nM); 1.04 ± 0.097 with MK0752 (0.5 nM); 0.997 ± 0.16 with MK0752 (1 nM); 0.927 ± 0.19 with MK0752 (5 nM); 1.03 ± 0.21 with MK0752 (10 nM). The surviving fraction with MK0752 (50 nM) was found to be 0.967 ± 0.22; with MK0752 (100 nM), 0.911 ± 0.26; with MK0752 (500 nM), 0.976 ± 0.35; with MK0752 (1000 nM), 1.05 ± 0.38.

Consider YAMATO SYNOVIAL, for which the surviving fraction with PLX-4720 (0.5 nM) amounted to 0.15 ± 0.019; with PLX-4720 (1 nM) it was 0.825 ± 0.054; with PLX-4720 (5 nM) it was 0.619 ± 0.023; with PLX-4720 (10 nM) it was 0.919 ± 0.055; with PLX-4720 (50 nM), 0.281 ± 0.024; with PLX-4720 (100 nM), 1.28 ± 0.086. The surviving fraction came out at 0.874 ± 0.083 with PLX-4720 (500 nM); 1.24 ± 0.091 in the experiment with PLX-4720 (1000 nM); 1.34 ± 0.1 with MK0752 (0.5 nM); 1.39 ± 0.13 with MK0752 (1 nM); 1.51 ± 0.082 with MK0752 (5 nM); 1.39 ± 0.058 in the experiment with MK0752 (10 nM). For the same test system, the surviving fraction with MK0752 (50 nM) came out at 1.49 ± 0.12; in the experiment with MK0752 (100 nM) it was 1.46 ± 0.11; with MK0752 (500 nM), 1.49 ± 0.063; with MK0752 (1000 nM), 1.41 ± 0.1.

In the case of A549 LUNG, the surviving fraction with PLX-4720 (0.5 nM) was found to be 0.904 ± 0.027; with PLX-4720 (1 nM) it was 0.928 ± 0.017; with PLX-4720 (5 nM), 0.922 ± 0.017; with PLX-4720 (10 nM), 0.922 ± 0.03; with PLX-4720 (50 nM), 0.942 ± 0.012; with PLX-4720 (100 nM), 0.98 ± 0.018. In addition, the surviving fraction was 0.975 ± 0.027 in the experiment with PLX-4720 (500 nM); 1.02 ± 0.047 with PLX-4720 (1000 nM); 1.02 ± 0.053 with MK0752 (0.5 nM); 1.03 ± 0.043 in the experiment with MK0752 (1 nM); 1.06 ± 0.059 with MK0752 (5 nM); 1.02 ± 0.062 with MK0752 (10 nM). The surviving fraction with MK0752 (50 nM) was determined as 1.06 ± 0.054; with MK0752 (100 nM) it was 1.09 ± 0.061; in the experiment with MK0752 (500 nM), 1.07 ± 0.063; in the experiment with MK0752 (1000 nM), 1.1 ± 0.038.

As to SUM149 BREAST, the surviving fraction in the experiment with PLX-4720 (10 nM) came to 0.827 ± 0.063; in the experiment with PLX-4720 (50 nM), 0.289 ± 0.02; with PLX-4720 (100 nM) it was 0.991 ± 0.094; in the experiment with PLX-4720 (500 nM) it was 0.821 ± 0.05; with PLX-4720 (1000 nM), 0.919 ± 0.011; in the experiment with MK0752 (0.5 nM), 0.927 ± 0.072. The surviving fraction in the experiment with MK0752 (1 nM) was 0.995 ± 0.09; with MK0752 (5 nM) it was 1.03 ± 0.062; in the experiment with MK0752 (10 nM) it was 1.05 ± 0.03; in the experiment with MK0752 (50 nM), 1.01 ± 0.08; with MK0752 (100 nM), 0.98 ± 0.15; with MK0752 (500 nM), 0.884 ± 0.014. Besides, the surviving fraction with MK0752 (1000 nM) is 0.935 ± 0.068.

For the test system MCF7 BREAST, the surviving fraction with PLX-4720 (0.5 nM) stood at 0.746 ± 0.042; with PLX-4720 (1 nM), 0.873 ± 0.059; with PLX-4720 (5 nM), 0.831 ± 0.033; with PLX-4720 (10 nM), 0.83 ± 0.035; with PLX-4720 (50 nM) it was 0.83 ± 0.014; with PLX-4720 (100 nM), 0.915 ± 0.022. For the same test system, the surviving fraction in the experiment with PLX-4720 (500 nM) is 0.851 ± 0.021; in the experiment with PLX-4720 (1000 nM) it was 0.899 ± 0.048; with MK0752 (0.5 nM) it was 0.922 ± 0.075; with MK0752 (1 nM) it was 0.916 ± 0.04; with MK0752 (5 nM) it was 0.916 ± 0.0061; with MK0752 (10 nM), 0.905 ± 0.076. The surviving fraction with MK0752 (50 nM) came to 0.976 ± 0.051; with MK0752 (100 nM), 0.913 ± 0.07; with MK0752 (500 nM), 0.964 ± 0.067; in the experiment with MK0752 (1000 nM), 0.94 ± 0.029.

As for MDAMB361 BREAST, the surviving fraction in the experiment with PLX-4720 (0.5 nM) was 0.888 ± 0.076; in the experiment with PLX-4720 (1 nM), 0.865 ± 0.035; in the experiment with PLX-4720 (5 nM), 0.8033 ± 0.0065; with PLX-4720 (10 nM) it was 0.792 ± 0.035; with PLX-4720 (50 nM), 0.991 ± 0.074; with PLX-4720 (100 nM), 0.918 ± 0.097. Also, the surviving fraction was 0.96 ± 0.097 in the experiment with PLX-4720 (500 nM); 0.86 ± 0.078 with PLX-4720 (1000 nM); 0.833 ± 0.044 in the experiment with MK0752 (0.5 nM); 0.904 ± 0.077 with MK0752 (1 nM); 0.873 ± 0.044 in the experiment with MK0752 (5 nM); 0.851 ± 0.084 in the experiment with MK0752 (10 nM). Moreover, the surviving fraction was 0.893 ± 0.06 with MK0752 (50 nM), 0.91 ± 0.064 with MK0752 (100 nM), 0.884 ± 0.056 in the experiment with MK0752 (500 nM) and 0.825 ± 0.073 in the experiment with MK0752 (1000 nM).

With SG28 HEADNECK, the surviving fraction with PLX-4720 (0.5 nM) was found to be 0.279 ± 0.033; in the experiment with PLX-4720 (1 nM) it was 0.796 ± 0.12; with PLX-4720 (5 nM) it was 0.718 ± 0.057; with PLX-4720 (10 nM) it was 0.849 ± 0.082; with PLX-4720 (50 nM), 0.513 ± 0.014; in the experiment with PLX-4720 (100 nM), 0.964 ± 0.027. The surviving fraction in the experiment with PLX-4720 (500 nM) worked out at 0.818 ± 0.11; in the experiment with PLX-4720 (1000 nM), 0.959 ± 0.036; with MK0752 (0.5 nM) it was 1.15 ± 0.048; in the experiment with MK0752 (1 nM), 1.04 ± 0.062; in the experiment with MK0752 (5 nM), 1.05 ± 0.055; with MK0752 (10 nM) it was 1.1 ± 0.027. The surviving fraction was 0.982 ± 0.075 in the experiment with MK0752 (50 nM), 1.05 ± 0.044 in the experiment with MK0752 (100 nM), 1.12 ± 0.13 with MK0752 (500 nM) and 1.13 ± 0.11 in the experiment with MK0752 (1000 nM).
